Experiment [1] addresses T1, Recombinant full-length human EP (Enteropeptidase) (Homo sapiens, UniProt P98073).
T1 construct: Recombinant full-length human EP (PeproTech, Cat #450-48C); purchased PeproTech 450-48C
The experiment can be described thus: In vitro inhibition potencies against Enteropeptidase (EP), fluorescent peptide GDDDDK-naphthylamine substrate. The conditions noted are these: 300 μM substrate, 1.25 nM EP; for inhibition at 0.1 µM: compound 0.1 μM; for inhibition at 1 µM: compound 1 μM; for inhibition at 10 µM: compound 10 μM. In kind it is biochemical. The procedure: In vitro inhibition potencies against Enteropeptidase (EP) Recombinant full-length human EP (PeproTech, Cat #450-48C) was used in this biochemical assay, with a quenched fluorescent labeled peptide GDDDDK-naphthylamine (NA) (Sigma, Cat #G5261) as the substrate in a buffer of 50 mM Tris-HCl pH 7.4, 200 mM NaCl and 0.01% Triton X-100. The enzyme activity was measured by following the formation of the cleavage product […](NA) by monitoring the fluorescence intensity (FI) at excitation/emission wavelengths of 340/410 nm. The steady-state kinetic characterization studies yielded an average of KM to be 412±22 μM and the apparent turnover number kcat^app of 11.8±0.4 s^−1 (N=2).
Compound inhibition studies were carried out under the conditions of 300 μM substrate and 1.25 nM EP. Reaction progress curves were collected by reading the FI at 340/410 nm continuously for 1 hour at an interval of 1 minute.
To screen compounds of formula (I), inhibition was studied at 4 different compound concentrations of 10 μM, 1 μM, 0.1 μM and 0.01 μM. Initial velocity of the reaction was determined, and percent of inhibition was calculated by comparing to the reaction in the absence of compound.
Accurate measurements of the inhibition potencies of selected compounds were studied in a 12-point dose-dependence fashion. […] Compound potency was measured by determining the inactivation rate constant (kobs) following the reaction change from the initial velocity vi to the steady-state velocity vs at various compound concentrations. The inactivation rate constants (kobs), were derived by fitting the reaction progress curves to eq. 1.
where YT is the detection signal of the reaction at time t, vi and vs are the initial and the steady-state velocities of the reaction, t is the reaction time. Y0 is the background signal (when t=0).
Compound binding mechanism was shown by plotting kobs˜[compound]. Hyperbolic fitting to eq. 2
conforms to a two-step binding mechanism as shown in Scheme BIO-1.
The plateau of the curve is the forward step rate constant of the isomerization step k3, KI^app is the inhibitor concentration that leads to half-maximal rate of inhibition of enzyme under the assay conditions. Compound inhibition potency was reported by the value of k3/KI^app.
A linear dependence of eq.3
indicates a one-step binding mechanism as shown in Scheme BIO-2
Slope of the linear fit gives the second-order rate constant of the compound binding k1, which is used to represent the compound inhibition potency.
(§1) Representative compounds of the present invention were tested according to the procedures as described in Biological Example 1 and Biological Example 2 above, with results as listed in Table 2 and Table 3, below. Results are reported as the %-inhibition (% Inh) or Kinact/KI value. Variability for the functional assay was typically within 20%. For the column headed Kinact/KI the listed measurement is the result of duplicate dilutions.

The target in experiment [2] is T2, Bovine trypsin (Bos taurus, UniProt P00760).
T2 construct: purchased Sigma-Aldrich T1426
T2 sequence (P00760 24-246): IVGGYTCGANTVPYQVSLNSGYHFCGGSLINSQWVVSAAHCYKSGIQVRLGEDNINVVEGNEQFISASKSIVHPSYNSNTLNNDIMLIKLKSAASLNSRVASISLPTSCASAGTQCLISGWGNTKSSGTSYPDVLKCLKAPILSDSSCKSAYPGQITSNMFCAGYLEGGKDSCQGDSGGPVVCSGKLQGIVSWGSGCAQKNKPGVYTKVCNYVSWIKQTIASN
Nature of the experiment: Biochemical Assay of Trypsin (T), H-D-CHA-AR-AMC substrate. To be noted: 15 μM substrate, 0.025 nM Trypsin; for inhibition at 0.1 µM: compound 0.1 μM; for inhibition at 1 µM: compound 1 μM; for inhibition at 10 µM: compound 10 μM. How it is done:
Bovine trypsin was purchased from Sigma-Aldrich (Cat No. T1426), and 7-amino-4-methylcoumarin (AMC) conjugated peptide H-D-cyclohexylalanine (D-CHA)-AR-AMC was used as the substrate in the assay. The protease activity of trypsin was followed by measuring AMC production by the emission fluorescence intensity of AMC at 460 nm with the excitation at 375 nm, in the same assay buffer as used in the EP assay. The enzyme kinetic characterization studies yielded an average of KM to be 3.9±0.5 μM and the apparent turnover number kcat^app of 33.8±0.4 s^−1 (N=2).
Studies of compound inhibition against T were carried out under the conditions of 15 μM substrate and 0.025 nM Trypsin. Reaction progress curves were collected by reading the FI at 375/460 nm continuously for 1 hour at an interval of 1 minute. Similar to the procedure for Enteropeptidase described above, compounds of formula (I) were screened against Trypsin at 4 different concentrations to obtain the percent of inhibition at 10 μM, 1 μM, 0.1 μM and 0.01 μM, and accurate potencies of selected compounds against Trypsin were derived from detailed 12-point dose-dependence studies for time-dependent inhibitors.
as §1

Molecules are shown by their SMILES.

T1 sequence (P98073 whole entry): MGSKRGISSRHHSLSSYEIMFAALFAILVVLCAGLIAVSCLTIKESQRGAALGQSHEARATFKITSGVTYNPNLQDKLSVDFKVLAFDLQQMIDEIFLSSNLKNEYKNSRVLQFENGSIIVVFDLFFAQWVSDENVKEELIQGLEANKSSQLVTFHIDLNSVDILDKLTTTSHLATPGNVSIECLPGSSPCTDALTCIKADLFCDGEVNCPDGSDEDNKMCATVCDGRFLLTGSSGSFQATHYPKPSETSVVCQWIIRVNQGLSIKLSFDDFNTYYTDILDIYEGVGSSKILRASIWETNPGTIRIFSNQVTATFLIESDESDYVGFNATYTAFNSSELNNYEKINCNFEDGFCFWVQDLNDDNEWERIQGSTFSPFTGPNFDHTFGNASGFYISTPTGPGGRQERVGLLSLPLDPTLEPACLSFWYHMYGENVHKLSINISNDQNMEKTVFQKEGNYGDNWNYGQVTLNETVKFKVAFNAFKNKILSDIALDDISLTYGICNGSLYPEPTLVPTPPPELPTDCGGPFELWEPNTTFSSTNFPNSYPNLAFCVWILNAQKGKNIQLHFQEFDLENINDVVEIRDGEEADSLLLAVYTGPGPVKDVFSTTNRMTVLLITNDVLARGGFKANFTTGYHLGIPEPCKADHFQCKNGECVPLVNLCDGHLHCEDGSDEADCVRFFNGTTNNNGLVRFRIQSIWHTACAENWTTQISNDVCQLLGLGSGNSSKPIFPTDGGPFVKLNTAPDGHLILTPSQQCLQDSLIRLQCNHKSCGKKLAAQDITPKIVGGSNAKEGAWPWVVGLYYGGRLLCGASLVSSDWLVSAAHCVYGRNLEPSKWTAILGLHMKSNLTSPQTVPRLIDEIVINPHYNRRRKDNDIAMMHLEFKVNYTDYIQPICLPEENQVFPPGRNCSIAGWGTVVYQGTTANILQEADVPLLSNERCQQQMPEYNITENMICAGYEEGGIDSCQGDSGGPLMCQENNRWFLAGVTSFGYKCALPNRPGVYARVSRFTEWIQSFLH

As for `N=C(N)Nc1ccc(C(=O)Oc2ccc(CC(=O)O)n3ncnc23)cc1F` [Compound 14, 2-(8-(3-fluoro-4-guanidinobenzoyloxy)-[1,2,4]triazolo[1,5-a]pyridin-5-yl)acetic acid], in experiment [1] (12-point dose-dependence, time-dependent inhibition, duplicate dilutions, read-out: kinact/KI^App), the kinact/KI amounted to 72800 M⁻¹ s⁻¹. Also, in experiment [1], the inhibition at 0.1 µM came to 96.8%, the inhibition at 1 µM was determined as 100% and the inhibition at 10 µM stood at 100%. Besides, in experiment [2] (12-point dose-dependence, time-dependent inhibition, duplicate dilutions, read-out: Kinact/KI^App), the kinact/KI is 69700 M⁻¹ s⁻¹. In experiment [2], the inhibition at 0.1 µM amounted to 87.6%, the inhibition at 1 µM was found to be 100% and the inhibition at 10 µM amounted to 100%.
`Cc1cc(C(=O)Oc2ccc(CC(=O)O)n3ncnc23)ccc1NC(=N)N` [Compound 15, 2-(8-(4-guanidino-3-methylbenzoyloxy)-[1,2,4]triazolo[1,5-a]pyridin-5-yl)acetic acid]: in experiment [1], the inhibition at 0.1 µM came to 1.3%, the inhibition at 1 µM came to 6.3% and the inhibition at 10 µM is 36.7%. Also, in experiment [2], the inhibition at 0.1 µM is -0.1%, the inhibition at 1 µM is 8.4% and the inhibition at 10 µM stood at 35.5%.
With `N=C(N)Nc1ccc(C(=O)Oc2ccc(CC(=O)O)n3ncnc23)cc1Cl` [Compound 16, 2-(8-(3-chloro-4-guanidinobenzoyloxy)-[1,2,4]triazolo[1,5-a]pyridin-5-yl)acetic], in experiment [1], the inhibition at 0.1 µM turned out to be 18.7%, the inhibition at 1 µM worked out at 84.4% and the inhibition at 10 µM was found to be 101%. Also, in experiment [2], the inhibition at 0.1 µM was 6.3%, the inhibition at 1 µM turned out to be 56.6% and the inhibition at 10 µM was 99.8%.
As for `N=C(N)Nc1ccc(C(=O)Oc2ccc(C3OC(=O)NC3=O)n3ncnc23)cc1` (centres unmarked) [Compound 17, 5-(2,4-dioxooxazolidin-5-yl)-[1,2,4]triazolo[1,5-a]pyridin-8-yl 4-guanidinobenzoate], in experiment [1], the inhibition at 0.1 µM stood at 73%, the inhibition at 1 µM was 101% and the inhibition at 10 µM came out at 100%. In experiment [2], the inhibition at 0.1 µM was found to be 99.8%, the inhibition at 1 µM came to 100% and the inhibition at 10 µM was found to be 100%.
For `N=C(N)Nc1ccc(C(=O)Oc2ccc(CC(=O)O)n3ncnc23)c(Cl)c1` [Compound 18, 2-(8-(2-chloro-4-guanidinobenzoyloxy)-[1,2,4]triazolo[1,5-a]pyridin-5-yl)acetic acid], in experiment [1], the inhibition at 0.1 µM was 81.2%, the inhibition at 1 µM is 100% and the inhibition at 10 µM is 100%. For the same molecule, in experiment [2], the inhibition at 0.1 µM was 43.5%, the inhibition at 1 µM was 97.6% and the inhibition at 10 µM stood at 99.9%.
Consider `Cc1cc(NC(=N)N)ccc1C(=O)Oc1ccc(CC(=O)O)n2ncnc12` [Compound 19, 2-(8-(4-guanidino-2-methylbenzoyloxy)-[1,2,4]triazolo[1,5-a]pyridin-5-yl)acetic acid], for which, in experiment [1], the inhibition at 0.1 µM is 10.3%, the inhibition at 1 µM stood at 59.9% and the inhibition at 10 µM was 101%. Besides, in experiment [2], the inhibition at 0.1 µM was determined as 9.5%, the inhibition at 1 µM came out at 48.9% and the inhibition at 10 µM was found to be 99.7%.
`N=C(N)Nc1ccc(C(=O)Oc2ccc(CC(=O)O)n3ncnc23)c(C(F)(F)F)c1` [Compound 20, 2-(8-(4-guanidino-2-(trifluoromethyl)benzoyloxy)-[1,2,4]triazolo [1,5-a]pyridin-5-yl)acetic acid]: in experiment [1], the inhibition at 0.1 µM worked out at 4.1%, the inhibition at 1 µM stood at 38.5% and the inhibition at 10 µM was determined as 98.9%. Also, in experiment [2], the inhibition at 0.1 µM was found to be 2.3%, the inhibition at 1 µM is 16.6% and the inhibition at 10 µM amounted to 88.7%.
As for `N=C(N)Nc1ccc(C(=O)Oc2ccc(CC(=O)O)n3ncnc23)c(F)c1` [Compound 21, 2-(8-(2-fluoro-4-guanidinobenzoyloxy)-[1,2,4]triazolo[1,5-a]pyridin-5-yl)acetic acid], in experiment [1], the inhibition at 0.1 µM is 99.4%, the inhibition at 1 µM was determined as 100% and the inhibition at 10 µM is 100%. In experiment [2], the inhibition at 0.1 µM was determined as 97.1%, the inhibition at 1 µM stood at 99.7% and the inhibition at 10 µM is 100%.

Source of the values: US20220281866A1, “5,8-DISUBSTITUTED-[1,2,4]TRIAZOLO[1,5-A]PYRIDINYL AND 5,8-DISUBSTITUTED-IMIDAZO[1,2-A]PYRIDINE DERIVATIVES USEFUL AS INHIBITORS OF ENTEROPEPTIDASE” (Janssen Pharmaceutica NV, priority 2019, published 2022).
